# Measured values as given in paper PMC6066574, “Resistance to the Plant Defensin NaD1 Features Modifications to the Cell Wall and Osmo-Regulation Pathways of Yeast” (Frontiers in Microbiology, 2018).
# Read-outs that look alike come from different tables or passages of the source.
# How the values were obtained:
# [1] = tested on: NaD1-resistant strains of S. cerevisiae compared to wild type BY4741; experiment: Stress spot assay on YPD agar; type: cell-based, Saccharomyces cerevisiae; details: for concentration that inhibited NaD1-resistant strains but not the wild type: YPD agar spot assay, Figure 6; for concentration at which sensitivity of the NaD1-resistant strains was observed: YPD agar, fivefold dilution spots, overnight 30°C, Supplementary Figures 3 and 4; for growth of NaD1-resistant strains relative to wild-type: result in words
# Method: YPD agar medium (25 mL) was amended to a final concentration of hydrogen peroxide (0.625 mM, 1.25 mM, 2.5 mM, 5 mM), CFW (1 μg/mL, 2.5 μg/mL, 5 μg/mL, 10 μg/mL), NaCl (100 mM, 200 mM, 300 mM), or SDS (12.5 μg/mL, 25 μg/mL, 50 μg/mL, 100 μg/mL) just before each plate was poured. Yeast cultures were grown overnight in 5 mL of YPD before dilution to an OD 600 nm of 0.1. A fivefold dilution series of each culture was spotted onto the plate (4 μL per spot) and incubated overnight at 30°C before being photographed.
# [2] = tested on: S. cerevisiae Caspofungin-R C; experiment: Antifungal growth assay, Caspofungin-R C; type: cell-based; details: Saccharomyces cerevisiae, Table 1, ½ PDB, 24 h at 30°C, OD600
# Method: (§1) S. cerevisiae BY4741 was grown overnight at 30°C with agitation in 5 mL of YPD. The overnight culture was then diluted to an OD 600 nm of 0.01 in 50% strength PDB medium (½ PDB) before addition of antifungal molecules. Cultures were initially grown with the antifungal molecules at 0.5x the minimum inhibitory concentration (MIC) or 1x MIC alongside a negative control lacking antifungals. Three independent lines for the test and controls were grown at the same time. The cultures were incubated overnight at 30°C with agitation. […] Sub-culturing was stopped once growth occurred at 32 times the original MIC.
# (§2) Cultures that were more tolerant to the antifungal molecule were streaked out for single colonies on non-selective YPD agar. Three colonies were picked from each line, and their resistance was re-tested. The colony with the highest resistance to the antifungal was retained for further experimentation. The MIC of pure strains isolated from each culture was broadly equivalent (Supplementary Figure 1).
# (§3) Antifungal assays were performed as described in [Hayes et al. (2013)]. Briefly, cultures were grown overnight (30°C, 250 rpm) in 5 mL YPD and diluted to an OD600 of 0.01 in ½ PDB. […] The final OD600 was measured using a SpectraMAX M5e plate reader (Molecular Devices).
# [3] = tested on: S. cerevisiae NaD1-resistant strain A; experiment: Antifungal growth assay, NaD1-R A; type: cell-based; details: Saccharomyces cerevisiae, Table 1, ½ PDB, 24 h at 30°C, OD600, read-out: Caspofungin MIC
# Method: as §1, §2, §3
# [4] = tested on: no-treatment control lines of S. cerevisiae; experiment: Antifungal growth assay, no-treatment control lines (stated together); type: cell-based; details: Saccharomyces cerevisiae, read-out: MIC against no treatment control
# Method: as §1
# (§4) Antifungal assays were performed as described in [Hayes et al. (2013)]. Briefly, cultures were grown overnight (30°C, 250 rpm) in 5 mL YPD and diluted to an OD600 of 0.01 in ½ PDB. Antifungal molecules were prepared at 10x the assay concentration, and 10 μL was mixed with 90 μL of diluted yeast culture before incubation for 24 h at 30°C. The final OD600 was measured using a SpectraMAX M5e plate reader (Molecular Devices).
# S. cerevisiae BY4741 = experiment: Serial sub-culturing in the presence of antifungal to develop resistance; type: cell-based, Saccharomyces cerevisiae; details: caspofungin-resistant lines
# Method: as §1
# [5] = tested on: S. cerevisiae NaD1-resistant strain C; experiment: Antifungal growth assay, NaD1-R C; type: cell-based; details: Saccharomyces cerevisiae, Table 1, ½ PDB, 24 h at 30°C, OD600, read-out: Caspofungin MIC
# Method: as §1, §2, §3
# [6] = tested on: S. cerevisiae NaD1-resistant strain B; experiment: Antifungal growth assay, NaD1-R B; type: cell-based; details: Saccharomyces cerevisiae, Table 1, ½ PDB, 24 h at 30°C, OD600, read-out: Caspofungin MIC
# Method: as §1, §2, §3
# [7] = tested on: NaD1-resistant strains of S. cerevisiae; experiment: Antifungal growth assay, NaD1-resistant strains (stated together); type: cell-based, Saccharomyces cerevisiae; details: Figure 2B; result in words
# Method: as §1, §2, §3
# [8] = tested on: caspofungin-resistant isolates of S. cerevisiae; experiment: Antifungal growth assay, caspofungin-resistant isolates (stated together); type: cell-based, Saccharomyces cerevisiae
# Method: as §1, §2, §3
# [9] = tested on: S. cerevisiae Caspofungin-R B; experiment: Antifungal growth assay, Caspofungin-R B; type: cell-based; details: Saccharomyces cerevisiae, Table 1, ½ PDB, 24 h at 30°C, OD600
# Method: as §1, §2, §3
# [10] = tested on: S. cerevisiae BY4741 wild-type; experiment: Antifungal growth assay, wild-type strain; type: cell-based; details: Saccharomyces cerevisiae
# Method: as §4
# [11] = tested on: S. cerevisiae Caspofungin-R A; experiment: Antifungal growth assay, Caspofungin-R A; type: cell-based; details: Saccharomyces cerevisiae, Table 1, ½ PDB, 24 h at 30°C, OD600
# Method: as §1, §2, §3
smiles,measurement,setting,value
"O=S(=O)(O)c1cc(Nc2nc(Nc3ccccc3)nc(N(CCO)CCO)n2)ccc1/C=C/c1ccc(Nc2nc(Nc3ccccc3)nc(N(CCO)CCO)n2)cc1S(=O)(=O)O [CFW, calcofluor white]",concentration that inhibited NaD1-resistant strains but not the wild type,[1],10 µg/mL
same,concentration at which sensitivity of the NaD1-resistant strains was observed,[1],1 µg/mL
[Cl-].[Na+] [NaCl],growth of NaD1-resistant strains relative to wild-type,[1]; 200 mM NaCl in YPD agar,grew better than wild-type
CCCCCCCCCCCCOS(=O)(=O)[O-].[Na+] [SDS],concentration that inhibited NaD1-resistant strains but not the wild type,[1],100 µg/mL
same,concentration at which sensitivity of the NaD1-resistant strains was observed,[1],12.5 µg/mL
CC[C@H](C)C[C@H](C)CCCCCCCCC(=O)N[C@H]1C[C@@H](O)[C@@H](NCCN)NC(=O)[C@@H]2[C@@H](O)CCN2C(=O)[C@H]([C@H](O)CCN)NC(=O)[C@H]([C@H](O)[C@@H](O)c2ccc(O)cc2)NC(=O)[C@@H]2C[C@@H](O)CN2C(=O)[C@H]([C@@H](C)O)NC1=O [caspofungin],MIC,[2],0.5 µM
same,MIC,[3],0.025 µM
same,MIC,[4],0.02 µM
same,rounds of sub-culture to achieve growth at concentrations 32-fold higher than the initial MIC,S. cerevisiae BY4741,15 rounds
same,MIC,[5],0.025 µM
same,MIC,[6],0.025 µM
same,sensitivity of NaD1-resistant strains compared with wild type,[7],as sensitive to caspofungin as the wild-type strain
same,MIC,"[8]; Saccharomyces cerevisiae, read-out: MIC against caspofungin-resistant isolates",0.5 µM
same,fold more resistant than no treatment control / wild type (MIC ratio),[8]; caspofungin-resistant isolates versus no treatment control / wild type,25 fold
same,MIC,[9],0.5 µM
same,MIC,"[10]; Table 1, Wild-type, ½ PDB, 24 h at 30°C, OD600, read-out: Caspofungin MIC",0.02 µM
same,MIC,"[10]; initial MIC at the start of sub-culturing, read-out: initial MIC",0.01 µM
same,MIC,[11],0.5 µM
OO [hydrogen peroxide],growth of NaD1-resistant strains relative to wild-type,[1]; range of hydrogen peroxide concentrations in YPD agar,grew the same as the wild-type strain
